How the values were obtained:
[1] = molecular target: Sodium-dependent dopamine transporter (Rattus norvegicus, UniProt P23977); assay: Inhibitory activity against Dopamine transporter using 0.5 nM [3H]WIN-35428 as radioligand
[2] = molecular target: Norepinephrine transporter (Rattus norvegicus, UniProt Q9WTR4); assay: Inhibitory activity against Norepinephrine transporter using 0.5 nM [3H]-radioligand
[3] = molecular target: Sodium-dependent serotonin transporter (Rattus norvegicus, UniProt P31652); assay: Inhibitory activity against Serotonin transporter using 0.2 nM [3H]paroxetine as radioligand
Sequence of Sodium-dependent serotonin transporter (P31652 whole entry): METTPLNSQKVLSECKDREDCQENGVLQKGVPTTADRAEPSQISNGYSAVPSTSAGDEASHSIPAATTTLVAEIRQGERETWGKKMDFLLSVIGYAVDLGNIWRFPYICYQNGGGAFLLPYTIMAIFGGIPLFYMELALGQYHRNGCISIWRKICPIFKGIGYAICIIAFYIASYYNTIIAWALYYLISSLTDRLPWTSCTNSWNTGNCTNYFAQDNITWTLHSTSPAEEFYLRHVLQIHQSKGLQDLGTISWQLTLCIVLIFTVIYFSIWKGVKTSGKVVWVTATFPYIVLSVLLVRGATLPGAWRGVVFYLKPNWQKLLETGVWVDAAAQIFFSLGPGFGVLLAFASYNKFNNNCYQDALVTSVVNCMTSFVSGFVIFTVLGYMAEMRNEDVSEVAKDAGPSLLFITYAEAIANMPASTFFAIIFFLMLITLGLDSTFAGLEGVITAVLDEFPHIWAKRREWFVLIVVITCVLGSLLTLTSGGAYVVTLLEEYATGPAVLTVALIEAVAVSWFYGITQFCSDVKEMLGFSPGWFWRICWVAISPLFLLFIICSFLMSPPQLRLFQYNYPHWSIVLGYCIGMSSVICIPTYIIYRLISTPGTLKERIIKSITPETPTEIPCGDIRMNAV

Sequence of Sodium-dependent dopamine transporter (P23977 whole entry): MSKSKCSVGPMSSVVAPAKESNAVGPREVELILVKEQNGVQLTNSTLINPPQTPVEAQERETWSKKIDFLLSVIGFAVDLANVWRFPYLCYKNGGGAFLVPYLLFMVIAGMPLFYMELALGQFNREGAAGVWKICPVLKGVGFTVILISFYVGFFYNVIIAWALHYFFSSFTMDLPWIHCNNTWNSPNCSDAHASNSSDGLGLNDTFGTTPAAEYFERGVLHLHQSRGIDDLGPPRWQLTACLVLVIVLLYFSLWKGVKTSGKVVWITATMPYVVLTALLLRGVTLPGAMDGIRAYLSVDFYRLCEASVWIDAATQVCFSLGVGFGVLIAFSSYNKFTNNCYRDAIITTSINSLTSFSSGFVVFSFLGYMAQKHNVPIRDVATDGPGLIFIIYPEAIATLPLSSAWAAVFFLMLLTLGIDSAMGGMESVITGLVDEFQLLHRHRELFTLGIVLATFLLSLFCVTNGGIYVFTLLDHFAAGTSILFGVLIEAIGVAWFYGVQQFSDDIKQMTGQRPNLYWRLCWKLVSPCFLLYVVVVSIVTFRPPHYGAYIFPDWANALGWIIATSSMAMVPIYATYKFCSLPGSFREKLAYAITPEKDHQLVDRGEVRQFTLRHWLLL
Sequence of Norepinephrine transporter (Q9WTR4 whole entry): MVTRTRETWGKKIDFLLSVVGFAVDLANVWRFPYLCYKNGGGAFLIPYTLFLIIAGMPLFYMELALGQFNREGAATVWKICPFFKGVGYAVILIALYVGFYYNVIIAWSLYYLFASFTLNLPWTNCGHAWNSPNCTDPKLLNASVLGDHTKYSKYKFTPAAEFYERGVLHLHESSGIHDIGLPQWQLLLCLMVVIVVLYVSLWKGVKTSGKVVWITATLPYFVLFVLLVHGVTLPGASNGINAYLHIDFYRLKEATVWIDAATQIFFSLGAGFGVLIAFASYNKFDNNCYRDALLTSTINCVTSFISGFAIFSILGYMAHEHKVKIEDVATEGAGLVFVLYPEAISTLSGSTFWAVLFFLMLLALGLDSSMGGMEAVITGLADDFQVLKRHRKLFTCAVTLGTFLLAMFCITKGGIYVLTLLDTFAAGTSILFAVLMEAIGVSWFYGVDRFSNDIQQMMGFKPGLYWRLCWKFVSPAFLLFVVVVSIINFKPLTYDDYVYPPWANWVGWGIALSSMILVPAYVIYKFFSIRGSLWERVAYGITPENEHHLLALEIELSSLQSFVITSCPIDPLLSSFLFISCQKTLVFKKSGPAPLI

Compound	IC50 [1] [µM]	IC50 [2] [µM]	IC50 [3] [µM]
CN1[C@@H]2CC[C@@H]1C(O)(c1ccccc1)C(c1ccccc1)C2 (mixture of isomers)	2.86	> 175	37.2
CN1C2CCC1C(c1ccccc1)=C(c1ccccc1)C2 (racemic)	0.55	21.4	47.8
CN1[C@@H]2CC[C@H]1[C@H](c1ccccc1)[C@H](c1ccccc1)C2 (racemic)		2.77	18.6
CN1[C@@H]2CC[C@H]1[C@@H](c1ccccc1)[C@@H](c1ccccc1)C2 (racemic)	0.028	2.67	34.7

Source: ChEMBL document CHEMBL1129994, “Synthesis and transporter binding properties of 2,3-diphenyltropane stereoisomers. Comparison to 3beta-phenyltropane-2beta-carboxylic acid esters” (J Med Chem, 1997)
